The text below walks through data of PubChem BioAssay AID1918953 (Molecular Pharmacology Branch, DTP, NCI, 2023).

In this assay the test system is MDA-MB-231 complex spheroid viability. Briefly: Anticancer human tumor MDA-MB-231/ATCC cell line growth inhibition.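 On all read-outs here: drug exposure lasted 7 days starting on day 3 of spheroid growth.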 As to conditions: for viability, T/C: stronger effect = lower value. An outline of the steps: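 Drug combinations with the LSD1 inhibitor iadademstat tested on tumor cells co-cultured as spheroids with endothelial cells and mesenchymal stem cells. Concentrations descended in half-log increments from clinical Cmax or 10 microM.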

The mark [1] stands for this setting: curve of first compound, second compound 0.1 µM.
Setting [2] is: curve of first compound, second compound 0.316 µM.
Setting [3] is: curve of first compound, second compound 1 µM.
Where [4] appears, read: curve of first compound, second compound 3.16 µM.
Where [5] appears, read: curve of first compound, second compound 10 µM.

Structures are written as SMILES. Values joined by “and” are separate entries in the source; they are usually repeats but may differ in a detail not shown here. Equal values may be shown once. Some results are limits rather than exact numbers.

For orientation: IC50 means the midpoint of a concentration-inhibition curve. A word on the viability, T/C: it is the ratio of treated to control. `CCc1c2c(nc3ccc(O)cc13)-c1cc3c(c(=O)n1C2)COC(=O)[C@]3(O)CC` + NC1CCC(NC2CC2c2ccccc2)CC1: the IC50 runs as follows: under setting [1], less than 0.949 nM; under setting [2], less than 0.949 nM; under setting [3], less than 0.949 nM; under setting [4], less than 0.949 nM; under setting [5], less than 0.949 nM. Besides, the viability, T/C is 17.1% (second compound 0.1 µM, first compound 0.000949 µM); 12.7% (second compound 0.1 µM, first compound 0.003 µM); 12% (second compound 0.1 µM, first compound 0.00949 µM); 14% (second compound 0.1 µM, first compound 0.03 µM); 5.37% (second compound 0.1 µM, first compound 0.0949 µM); 2.95% (second compound 0.1 µM, first compound 0.3 µM). Besides, the viability, T/C runs as follows: (second compound 0.316 µM, first compound 0.000949 µM) 17.7%; (second compound 0.316 µM, first compound 0.003 µM) 13.5%; (second compound 0.316 µM, first compound 0.00949 µM) 12%; (second compound 0.316 µM, first compound 0.03 µM) 16%; (second compound 0.316 µM, first compound 0.0949 µM) 5.44%; (second compound 0.316 µM, first compound 0.3 µM) 2.86%. For the same molecule, the viability, T/C by setting is: (second compound 1 µM, first compound 0.000949 µM) 19.1%; (second compound 1 µM, first compound 0.003 µM) 14.6%; (second compound 1 µM, first compound 0.00949 µM) 13.7%; (second compound 1 µM, first compound 0.03 µM) 15.5%; (second compound 1 µM, first compound 0.0949 µM) 4.76%; (second compound 1 µM, first compound 0.3 µM) 2.64%. The viability, T/C (second compound 3.16 µM, first compound 0.000949 µM) was 17%; the viability, T/C (second compound 3.16 µM, first compound 0.003 µM) is 15.3%; the viability, T/C (second compound 3.16 µM, first compound 0.00949 µM) was 16.5%; the viability, T/C (second compound 3.16 µM, first compound 0.03 µM) is 13.6%; the viability, T/C (second compound 3.16 µM, first compound 0.0949 µM) was 4.18%; the viability, T/C (second compound 3.16 µM, first compound 0.3 µM) was 1.91%. Also, the viability, T/C (second compound 10 µM, first compound 0.000949 µM) is 13.9%; the viability, T/C (second compound 10 µM, first compound 0.003 µM) is 14%; the viability, T/C (second compound 10 µM, first compound 0.00949 µM) is 20.1%; the viability, T/C (second compound 10 µM, first compound 0.03 µM) is 13.4%; the viability, T/C (second compound 10 µM, first compound 0.0949 µM) is 3.42%; the viability, T/C (second compound 10 µM, first compound 0.3 µM) is 1.8%.

For the molecule `O=C(c1cc(Cc2n[nH]c(=O)c3ccccc23)ccc1F)N1CCN(C(=O)C2CC2)CC1` + NC1CCC(NC2CC2c2ccccc2)CC1, the IC50 is, setting by setting: under setting [1], more than 10000 nM; under setting [2], more than 10000 nM; under setting [3], more than 10000 nM; under setting [4], 7580 nM; under setting [5], 2460 nM. In addition, the viability, T/C runs as follows: (second compound 0.1 µM, first compound 0.0316 µM) 101%; (second compound 0.1 µM, first compound 0.1 µM) 94.5%; (second compound 0.1 µM, first compound 0.316 µM) 87.5%; (second compound 0.1 µM, first compound 1 µM) 79.3%; (second compound 0.1 µM, first compound 3.16 µM) 66.8%; (second compound 0.1 µM, first compound 10 µM) 56.2%. Moreover, the viability, T/C is 98.9% (second compound 0.316 µM, first compound 0.0316 µM); 102% (second compound 0.316 µM, first compound 0.1 µM); 93.5% (second compound 0.316 µM, first compound 0.316 µM); 82.1% (second compound 0.316 µM, first compound 1 µM); 66.1% (second compound 0.316 µM, first compound 3.16 µM); 52.7% (second compound 0.316 µM, first compound 10 µM). In addition, the viability, T/C runs as follows: (second compound 1 µM, first compound 0.0316 µM) 93.1%; (second compound 1 µM, first compound 0.1 µM) 94.5%; (second compound 1 µM, first compound 0.316 µM) 84.3%; (second compound 1 µM, first compound 1 µM) 74.5%; (second compound 1 µM, first compound 3.16 µM) 67.1%; (second compound 1 µM, first compound 10 µM) 57.6%. The viability, T/C is 80.8% (second compound 3.16 µM, first compound 0.0316 µM); 77.5% (second compound 3.16 µM, first compound 0.1 µM); 74.2% (second compound 3.16 µM, first compound 0.316 µM); 70.2% (second compound 3.16 µM, first compound 1 µM); 56.8% (second compound 3.16 µM, first compound 3.16 µM); 47.9% (second compound 3.16 µM, first compound 10 µM). For the same molecule, the viability, T/C (second compound 10 µM, first compound 0.0316 µM) was 64.4%; the viability, T/C (second compound 10 µM, first compound 0.1 µM) was 61.9%; the viability, T/C (second compound 10 µM, first compound 0.316 µM) was 63%; the viability, T/C (second compound 10 µM, first compound 1 µM) is 55.3%; the viability, T/C (second compound 10 µM, first compound 3.16 µM) is 47.4%; the viability, T/C (second compound 10 µM, first compound 10 µM) is 37.6%.

In the case of `NC1CCC(NC2CC2c2ccccc2)CC1` (configuration not stated), the viability, T/C is, setting by setting: (compound 0.1 µM) 102% [middle of 25 runs]; (compound 0.316 µM) 106% and 102%; (compound 1 µM) 99.7% [middle of 25 runs]; (compound 10 µM) 61% [middle of 23 runs]. Further, the IC50 (compound alone, run of 01/18/2022) was more than 10000 nM.

As for `CCc1c2c(nc3ccc(O)cc13)-c1cc3c(c(=O)n1C2)COC(=O)[C@]3(O)CC`, the viability, T/C was 13.4% and 18% (compound 0.000949 µM); 8.18% and 14.8% (compound 0.003 µM); 7.45% and 15.4% (compound 0.00949 µM); 9.98% and 5.59% (compound 0.03 µM); 5.58% and 0.92% (compound 0.0949 µM); 2.32% and 0.78% (compound 0.3 µM). In addition, the IC50 (curve of compound) is less than 0.949 nM.

Turning to `O=C(C=Cn1cnc(-c2cc(C(F)(F)F)cc(C(F)(F)F)c2)n1)NNc1cnccn1`, the viability, T/C (compound 0.00316 µM) was 61.8% and 35.1%; the viability, T/C (compound 0.01 µM) was 32.6% and 31.3%; the viability, T/C (compound 0.0316 µM) is 11.5% and 11.8%; the viability, T/C (compound 0.1 µM) was 9.25% and 3.52%; the viability, T/C (compound 0.316 µM) was 10.8% and 3.53%; the viability, T/C (compound 1 µM) is 5.27% and 4.37%. Also, for the setting “curve of compound”, the IC50 is 5.04 nM and < 3.16 nM.

Take `Nc1ncn(C2CC(O)C(CO)O2)c(=O)n1` (configuration not stated): the viability, T/C was 99.5% and 83.9% (compound 0.00316 µM); 95.3% and 91.9% (compound 0.01 µM); 83.2% and 87.7% (compound 0.0316 µM); 75.1% and 78.5% (compound 0.1 µM); 64.4% and 69.5% (compound 0.316 µM); 53.7% and 56.2% (compound 1 µM). For the setting “curve of compound”, the IC50 was more than 1000 nM.

For the molecule `O=C(C=Cc1cccc(S(=O)(=O)Nc2ccccc2)c1)NO`, the viability, T/C reads like this: (compound 0.00949 µM) 82.2% and 70.1%; (compound 0.03 µM) 62.3% and 50.3%; (compound 0.0949 µM) 52.9% and 31.3%; (compound 0.3 µM) 24.5% and 17.3%; (compound 0.949 µM) 13.2% and 0.72%. Moreover, under “curve of compound”, the IC50 is 81.6 nM and 30.6 nM.
